In one assay the target is T1, NLuc-hACKR3 (Homo sapiens, UniProt P25106).
T1 construct: expressed in transfected cells; host or cells: HEK293T (membranes, transient expression)
As to the kind of experiment: NanoBRET ligand binding assay (CXCL12-AF647 displacement). To be noted: 0.3 nM CXCL12-AF647, HEK293T membranes; read-out: IC50, displacement of CXCL12-A647 binding to NLuc-hACKR3. How it is done: Membranes of HEK293T cells that transiently expressed the NLuc-hACKR3 or HA-hACKR3 were produced as previously described.[23] Briefly, 2 million HEK293T cells were seeded per […] and were transfected the following day using a DNA/PEI-mix containing 0.25 μg plasmid DNA encoding for the ACKR3, 4.75 μg pcDEF3 plasmid DNA and 30 μg linear PEI. Two days after transfection, cells were collected in PBS (137 mM NaCl, 2.57 mM KCl, 1.5 mM KH2PO4, 8 mM Na2HPO4) and pelleted by centrifugation. Cell pellets were resuspended in ice-cold membrane buffer (15 mM Tris, 0.3 mM EDTA, 2 mM MgCl2, pH 7.4 at 4 °C) and dounce-homogenized on ice by plunging the pestle 10 times with 1500 rpm. […]
All dilutions were prepared in HBSS supplemented with 0.2% BSA. […] Total light intensity was measured at 460 nm wavelength with 80 nm bandwidth and separately for wavelengths ≥610 nm using the PHERAstar-FSX (BMG Labtech) with a dual emission filter. […]
The sigmoidal concentration-dependent displacement of binding of the probes [^3H]VUF15485 and CXCL12-A647 by unlabeled ligands were analyzed using GraphPad Prism 8, by fitting a one-site binding model to the data, to determine the pIC50. Mean pIC50 values were determined by averaging fitted values from individual experiments. […] Mean pEC50 values and pIC50 values were determined by averaging fitted values from individual experiments. […]

Assay [1] concerns the target T2, ACKR3 (Homo sapiens, UniProt P25106).
T2 construct: expressed in transfected cells; host or cells: HEK293T
Kind of assay: NanoBiT-complementation β-arrestin2 recruitment to hACKR3 in HEK293T cells. Type of assay: cell-based. As to conditions: for EC50: * VUF16840 as inverse agonist, 15 minutes incubation, read-out: β-arrestin2 NanoBit pEC50 (converted). As to the method: (§1) For 1·10^6 HEK293T cells, a transfection mix consisting of 2 μg plasmid DNA, 12 μg linear PEI in a total volume of 200 μL 150 mM NaCl was made and thoroughly vortexed. The transfection mix was incubated for 15 minutes and consequently added to a cell suspension with a final concentration of 3·10^5 cells/mL. For functional studies this cell suspension was immediately transferred to a poly-L-lysine-coated white 96-well plate, with 3·10^4 cells per well. […] For BRET-based membrane localization experiments, the 2 μg plasmid DNA consisted of ACKR3-NL (0.05 μg), mVenus-CAAX (0.25 μg), and pcDEF3 vector DNA without insert (1.7 μg).
(§2) Two days after transfection (vide supra), medium was aspirated and cells were reconstituted in HBSS with 0.05% BSA. […] After treating the cell with ligand furimazine was added (310 times diluted from stock concentration). Cells were incubating at 37 °C for another 3 minutes before detection of bioluminescent intensities.
To determine the insurmountable antagonism of VUF16840, medium of transfected cells was aspirated and cells were reconstituted in HBSS with 20 mM HEPES and 0.1% BSA. Cells were incubated with VUF16840 or buffer for 60 minutes after which furimazine was added and cells were incubated for another 5 minutes, all at 37 °C.
(§3) Bioluminescence was measured using the PHERAstar-FSX and is a measure for the relative proximity of LgBiT- and SmBiT-tagged proteins and thus the occurrence of investigated protein–protein interaction.[38]
(§4) Mean pIC50 values were determined by averaging fitted values from individual experiments. Graphs depict the pooled data of all experiments. Similarly, sigmoidal, ligand-induced concentration-dependent activation or inhibition of the proximity between ACKR3 and the protein of interest was analyzed using GraphPad Prism 8, by fitting a 3-parameter concentration-response model to the data, to determine pEC50/pIC50 values. Mean pEC50 values and pIC50 values were determined by averaging fitted values from individual experiments. Graphs depict the pooled data of all experiments, for which values are normalized, per experiment, to the fold difference compared with basal signal.

Assay [2] concerns the target T2, ACKR3. As to the kind of experiment: NanoBiT clathrin A/β-arrestin2 interaction in ACKR3-expressing HEK293T cells. In kind it is cell-based. How it is done:
as §1, §2, §3
Fig. 5 Inhibition of both constitutive as well as agonist-induced ACKR3 activity by VUF16840. HEK293T cells were stimulated with increasing concentrations of VUF15485 or VUF16840 only (A–D), or increasing concentrations of VUF16840 in the presence of 100 nM VUF15485 (E–H). The resulting proximity between ACKR3 and β-arrestin1 (A, E), GRK2 (B, F), or Rab5a (C, G) was determined by bioluminescence resonance energy transfer. Furthermore, an interaction between clathrin A and β-arrestin2 was measured by NLuc complementation, as was determined by quantifying the relative light units (D, H). Depicted data is normalized as fold-basal and represents the mean ± SD of N experiments with triplicate measurements per experiment. N is specified in Supplemental Table 1.

In assay [3] the target is T2, ACKR3. As to the kind of experiment: BRET ACKR3-Rab5a proximity (early endosome translocation) in HEK293T cells. In kind it is cell-based. To be noted: for EC50: * VUF16840 as inverse agonist, read-out: Rab5a BRET pEC50 (converted). As to the method: as §1
as §4, with “The sigmoidal concentration-dependent displacement of binding of the probes [^3H]VUF15485 and CXCL12-A647 by unlabeled ligands were analyzed using GraphPad Prism 8, by fitting a one-site binding model to the data, to determine the pIC50. Mean pIC50” for “Mean pIC50”
Fig. 5 Inhibition of both constitutive as well as agonist-induced ACKR3 activity by VUF16840. […] The resulting proximity between ACKR3 and β-arrestin1 (A, E), GRK2 (B, F), or Rab5a (C, G) was determined by bioluminescence resonance energy transfer. Furthermore, an interaction between clathrin A and β-arrestin2 was measured by NLuc complementation, as was determined by quantifying the relative light units (D, H). […]

T2 sequence (P25106 whole entry): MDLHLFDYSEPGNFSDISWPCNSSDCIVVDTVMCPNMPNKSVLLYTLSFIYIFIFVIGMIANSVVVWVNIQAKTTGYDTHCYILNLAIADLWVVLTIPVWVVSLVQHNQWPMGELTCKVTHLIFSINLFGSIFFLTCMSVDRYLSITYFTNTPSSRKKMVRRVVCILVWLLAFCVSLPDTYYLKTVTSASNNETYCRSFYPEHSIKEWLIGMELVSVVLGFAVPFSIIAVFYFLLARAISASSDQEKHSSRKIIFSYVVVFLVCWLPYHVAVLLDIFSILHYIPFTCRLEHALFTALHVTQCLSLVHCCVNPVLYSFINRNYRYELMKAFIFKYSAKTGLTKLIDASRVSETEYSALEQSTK
T1 sequence (P25106 whole entry): as above

With `COc1ccccc1CCNC(=O)C1CN(C2CCCCC2)CCC1NC(=O)c1cc(-c2ccc(F)cc2F)on1` (stereo not shown) [VUF16840], the IC50 at NLuc-hACKR3 was 7 nM; on ACKR3 [1] (inverse agonist, after 30 minutes of incubation, read-out: IC50, inhibition of constitutive β-arrestin2 recruitment to hACKR3 (NanoBiT)), 6.3 nM; at ACKR3 [1] (versus 100 nM VUF15485, read-out: β-arrestin2 NanoBit, Inhibition by VUF16840 (pIC50) (converted)), 20 nM; at ACKR3 [2] (versus 100 nM VUF15485, read-out: Clathrin A/ β-arrestin2 binding, Inhibition by VUF16840 (pIC50) (converted)), 50.1 nM; at ACKR3 [3] (versus 100 nM VUF15485, read-out: Rab5a BRET, Inhibition by VUF16840 (pIC50) (converted)), 5.01 nM. Moreover, the “fashion of inhibition of CXCL12- and CXCL11-mediated β-arrestin2 recruitment (Schild analysis)” value at ACKR3 [1] (60 minutes pretreatment with VUF16840) is recorded as “nonsurmountable”. For the same molecule, the EC50 is 15.8 nM on ACKR3 [1]; 10 nM at ACKR3 [2] (* VUF16840 as inverse agonist, read-out: Clathrin A/ β-arrestin2 binding pEC50 (converted)); 1.58 nM on ACKR3 [3].
Regarding `COc1cc(C(=O)N(CCC2CCCN2C)CC(C)=Cc2ccccc2F)cc(OC)c1OC` (stereo not shown) [VUF15485, reference compound], the IC50 at NLuc-hACKR3 turned out to be 28 nM. Also, the EC50 at ACKR3 [1] was 15.8 nM; on ACKR3 [2] (NanoBiT, read-out: EC50, clathrin A/β-arrestin2 interaction) it was 6 nM; at ACKR3 [3], 7.94 nM.

Source of the values: paper PMC12799421, “Inhibition of constitutive activity of the atypical chemokine receptor 3 by the small-molecule inverse agonist VUF16840” (Molecular Pharmacology, 2025).
